Measured values published in article PMC8634879, “Design, Synthesis, and Biological Evaluation of Pyrano[2,3-c]-pyrazole–Based RalA Inhibitors Against Hepatocellular Carcinoma” (Frontiers in Chemistry, 2021).
Read-outs that look alike come from different tables or passages of the source.

Key:
[1] = test system: SMMC-7721 cells; test: Cell proliferation assay (MTT), SMMC-7721; assay type: cell-based; details: Homo sapiens, average of at least three independent replicates ± SD, read-out: Anti-proliferative activities (IC50, μM) SMMC-7721
Procedure: (§1) The antibodies recognizing LC3, p62/SQSTM1, RalA, RalB, and GAPDH were purchased from Proteintech (Wuhan, China). HCC cell lines, including HepG2, Hep3B, Huh-7, and SMMC-7721, were obtained from the Chinese Center for Type Culture Collection (Wuhan, China) and cultured in DMEM (Dulbecco’s modified Eagle’s medium) with 10% FBS (fetal bovine serum) and streptomycin. Cytotoxicity assays were performed by using the MTT method as previously described.
(§2) The in vitro RalA/B bioactivity assays were performed following methods outlined in previous reports. ([Yan et al., 2016]; [Zhang et al., 2018]; [Walsh et al., 2019]; [Bum-Erdene et al., 2020]). In brief, the lysates of the test compound or vehicle-treated cells were cleared using cold centrifugation, and supernatants were collected. An RalBP1 solution was added to 96-well plates and incubated for 1–2 h, and then the plates were washed thrice using ELISA buffer. Next, cellular lysates were added, and samples were incubated overnight at 4°C. Then, ice-cold mouse anti-FLAG antibody was added, and samples were incubated for one more hour. After subsequent washing with ELISA buffer thrice, the HRP-conjugated anti-mouse antibody was added, and samples were incubated for another hour. Then, the HRP substrate was added. Antigen–antibody reactions were quenched by the addition of sulfuric acid (2 mol/L). Remaining RalA/B was detected by the OD450 values which were collected by using a plate reader. Cell proliferation assays, colony formation assays, apoptosis assays, GST pulldown, and Western blotting were used following methods outlined in our previous reports. ([Zhou et al., 2015]; [Zhang et al., 2016]; [Yang et al., 2017]; [He et al., 2019]). Autophagy levels and protein immunoblotting were used following the methods mentioned in our previous reports ([Pan et al., 2018]; [Wang et al., 2018]; [Hao et al., 2019]; [Wang et al., 2019]; [Peng et al., 2020]). Detailed experimental procedures are described in supporting materials.

[2] = target: T1, RalA (Homo sapiens, UniProt P11233); test: ELISA-based RalA activity assay (RalBP1-coated plates, lysates of compound-treated cells); assay type: biochemical; details: for remaining activity at 1 µM: 1 μM compound, % control = activity remained; for IC50: enzymatic inhibition, average of at least three independent replicates ± SD, read-out: Kinase activities (IC50, μM) RalA
T1 construct: expressed in transfected cells; host or cells: HepG2 (from b6; the methods paragraph names no cell line)
T1 sequence (P11233 1-203 limits assumed): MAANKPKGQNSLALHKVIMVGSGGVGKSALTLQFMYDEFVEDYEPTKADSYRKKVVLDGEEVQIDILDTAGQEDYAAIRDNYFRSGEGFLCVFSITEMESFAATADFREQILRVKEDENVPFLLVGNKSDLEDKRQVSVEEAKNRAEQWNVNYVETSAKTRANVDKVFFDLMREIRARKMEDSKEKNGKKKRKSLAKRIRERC
Procedure: as §2

[3] = test system: HepG2 cells; test: Cell proliferation assay (MTT), HepG2; assay type: cell-based; details: Homo sapiens
Procedure: as §1, §2

[4] = test system: Huh-7 cells; test: Cell proliferation assay (MTT), Huh-7; assay type: cell-based; details: Homo sapiens
Procedure: as §1, §2

[5] = test system: Hep3B cells; test: Cell proliferation assay (MTT), Hep3B; assay type: cell-based; details: Homo sapiens, average of at least three independent replicates ± SD, read-out: Anti-proliferative activities (IC50, μM) Hep3B
Procedure: as §1, §2

[6] = target: T2, RalB (Homo sapiens, UniProt P11234); test: ELISA-based RalB activity assay (RalBP1-coated plates, lysates of compound-treated cells); assay type: biochemical; details: for remaining activity at 1 µM: 1 μM compound, % control = active (RalBP1-bound) RalB remaining; for IC50: enzymatic inhibition, average of at least three independent replicates ± SD, read-out: Kinase activities (IC50, μM) RalB
T2 construct: expressed in transfected cells; host or cells: HepG2 (from b6; the methods paragraph names no cell line)
T2 sequence (P11234 1-203 limits assumed): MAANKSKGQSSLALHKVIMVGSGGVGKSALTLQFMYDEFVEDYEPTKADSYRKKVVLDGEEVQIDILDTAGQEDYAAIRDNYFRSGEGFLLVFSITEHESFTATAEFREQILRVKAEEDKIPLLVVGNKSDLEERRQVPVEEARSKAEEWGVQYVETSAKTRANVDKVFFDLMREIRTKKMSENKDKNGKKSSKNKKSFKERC
Procedure: as §2

[7] = HepG2, Table 1, cell proliferation inhibition, read-out: IC50 (μM) HepG2
[8] = HepG2, Table 2, average of at least three independent replicates ± SD, read-out: Anti-proliferative activities (IC50, μM) HepG2
[9] = Table 1, cell proliferation inhibition, read-out: IC50 (μM) Huh7
[10] = Table 2, average of at least three independent replicates ± SD, read-out: Anti-proliferative activities (IC50, μM) Huh-7

| SMILES | IC50 [1] | remaining activity at 1 µM [2] | IC50 [2] | IC50 [3, 7] | IC50 [3, 8] | IC50 [4, 9] | IC50 [4, 10] | IC50 [5] | remaining activity at 1 µM [6] | IC50 [6] | melting point |
| --- | --- | --- | --- | --- | --- | --- | --- | --- | --- | --- | --- |
| Cc1nn(-c2ccccc2)c2c1C(c1ccc(C(F)(F)F)cc1)C(C#N)=C(NS(=O)(=O)c1ccc(F)cc1F)O2 (stereo not shown) [4r, N-(5-cyano-3-methyl-1-phenyl-4-(4-(trifluoromethyl)phenyl)-1,4-dihydropyrano[2,3-c]-pyrazol-6-yl)-2,4-difluorobenzenesulfonamide] | > 10 µM | 30% | 0.66 ± 0.08 µM | 7.56 ± 0.92 µM | 7.56 ± 0.92 µM | 7.39 ± 0.85 µM | 7.39 ± 0.85 µM | 8.3 ± 0.66 µM | 43% | 1.49 ± 0.22 µM | 65.8 to 66.5 °C |
| Cc1nn(-c2ccccc2)c2c1C(c1ccc(C(F)(F)F)cc1)C(C#N)=C(NS(=O)(=O)c1ccc(C(F)(F)F)cc1)O2 (stereo not shown) [4q, N-(5-cyano-3-methyl-1-phenyl-4-(4-(trifluoromethyl)phenyl)-1,4-dihydropyrano[2,3-c]-pyrazol-6-yl)-4-(trifluoromethyl)-benzenesulfonamide] | > 10 µM | 37% | 1.02 ± 0.09 µM | 8.65 ± 0.97 µM | 8.65 ± 0.97 µM | 8.42 ± 0.94 µM | 8.42 ± 0.94 µM | 7.76 ± 1 µM | 39% | 1.16 ± 0.19 µM | 153.7 to 154.1 °C |
| Cc1ccc(S(=O)(=O)NC2=C(C#N)C(c3ccncc3)c3c(C)nn(-c4ccccc4)c3O2)cc1 (stereo not shown) [4l, N-(5-cyano-3-methyl-1-phenyl-4-(pyridin-4-yl)-1,4-dihydropyrano[2,3-c]-pyrazol-6-yl)-4-methylbenzenesulfonamide] | 5.94 ± 0.77 µM | 40% | 1.24 ± 0.15 µM | 9.2 ± 0.89 µM | 6.01 µM | 9.15 ± 1.04 µM | 9.15 ± 1.04 µM | 4.39 ± 0.57 µM | 52% | 2.64 ± 0.3 µM | 100.5 to 101.1 °C |
| Cc1ccc(S(=O)(=O)NC2=C(C#N)C(c3ccsc3)c3c(C)nn(-c4ccccc4)c3O2)cc1 (stereo not shown) [4m, N-(5-cyano-3-methyl-1-phenyl-4-(thiophen-3-yl)-1,4-dihydropyrano[2,3-c]-pyrazol-6-yl)-4-methylbenzenesulfonamide] | 9.6 ± 1.05 µM | 45% | 1.7 ± 0.22 µM | 7.2 ± 0.65 µM | 9.15 µM | > 10 µM | > 10 µM | 9.84 ± 1.37 µM | 58% | 3.86 ± 0.39 µM | 67.8 to 68.4 °C |
| Cc1nn(-c2ccccc2)c2c1C(c1ccc(C(F)(F)F)cc1)C(C#N)=C(NS(=O)(=O)c1cccs1)O2 (stereo not shown) [4o, N-(5-cyano-3-methyl-1-phenyl-4-(4-(trifluoromethyl)phenyl)-1,4-dihydropyrano[2,3-c]-pyrazol-6-yl)thiophene-2-sulfonamide] | > 10 µM | 36% | 0.96 ± 0.12 µM | 5.32 ± 0.61 µM | 5.32 ± 0.61 µM | > 10 µM | > 10 µM | 7.69 ± 0.84 µM | 47% | 1.93 ± 0.26 µM | 55.9 to 56.7 °C |
